Data as given in patent publication US9181305B2, “Exendin-4 peptide analogues” (SANOFI, priority 2012, dated 2015).
Converted amounts (≈) assume the structure as drawn. *1 amine or outer side, *2 acyl side, *3 side chain or, on linkers, in order; H or OH if unused. Where a SMILES comes first, the peptide text is derived from it. Side-chain parts run from the residue outwards. [ ]: non-standard residue; d: D form. The star is where a group is joined. γGlu = O=C(O)[C@H](CCC(=O)[*:2])N[*:1]; Palmitoyl = CCCCCCCCCCCCCCCC(=O)*

Tests used:
[1] = biological target: T1, human glucagon receptor (hGlucagon R) (Homo sapiens, UniProt P47871); assay: cAMP response (HTRF) of HEK-293 cells stably expressing human glucagon receptor; assay type: cell-based; conditions: read-out: EC50 hGlucagonR
T1 construct: expressed in transfected cells; host or cells: HEK-293
Procedure: cAMP content of cells was determined using a kit from Cisbio Corp. (cat. no. 62AM4PEC) based on HTRF (Homogenous Time Resolved Fluorescence). For preparation, cells were split into T175 culture flasks and grown overnight to near confluency in medium (DMEM/10% FBS). Medium was then removed and cells washed with PBS lacking calcium and magnesium, followed by proteinase treatment with accutase (Sigma-Aldrich cat. no. A6964). Detached cells were washed and resuspended in assay buffer (1×HBSS; 20 mM HEPES, 0.1% BSA, 2 mM IBMX) and cellular density determined. […] For measurement, 25 μl of test compound in assay buffer was added to the wells, followed by incubation for 30 minutes at room temperature.

[2] = biological target: T2, human GLP-1 receptor (hGLP-1 R) (Homo sapiens, UniProt P43220); assay: cAMP response (HTRF) of HEK-293 cells stably expressing human GLP-1 receptor; assay type: cell-based; conditions: HEK-293 cells expressing human GLP-1 receptor, cAMP formation
T2 construct: expressed in transfected cells; host or cells: HEK-293
How it was run: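 Detached HEK-293 cells stably expressing the receptor were suspended in HBSS with 20 mM HEPES, 0.1% BSA and 2 mM IBMX. Test compound was added for 30 min at room temperature, and cellular cAMP was quantified by HTRF.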

[3] = physchem; assay type: physicochemical
Procedure: Prior to the testing of solubility and stability of a peptide batch, its content was determined. Therefore, two parameters were investigated, its purity (HPLC-UV) and the amount of salt load of the batch (ion chromatography). Since synthesized peptides contain primarily trifluoracetate anions, only anion chromatography was performed. The content was then calculated based on the assumption that peptide-related impurities are detected at the same UV-absorption rate as the target peptide, as well as that cations are not present in the sample.
Therefore, solutions from solid samples were prepared in different buffer systems with a concentration of 1.0 mg/mL compound based on the previously determined content. HPLC-UV was performed after 2 h of gentle agitation from the supernatant, which was obtained by 20 min of centrifugation at 4000 rpm. […] This analysis also served as t0 for the stability testing.
Instrument: Agilent 1100, column: X-Bridge C18 3.5 μm 2.1×150 mm (Waters), eluent: A: H20+500 ppm TFA/B: Methanol, flow: 0.55 ml/min, gradient: 0-5 min: 10-60% B; 5-15 min: 60-99% B; detection: 214 nm.

T1 sequence (P47871 26-477): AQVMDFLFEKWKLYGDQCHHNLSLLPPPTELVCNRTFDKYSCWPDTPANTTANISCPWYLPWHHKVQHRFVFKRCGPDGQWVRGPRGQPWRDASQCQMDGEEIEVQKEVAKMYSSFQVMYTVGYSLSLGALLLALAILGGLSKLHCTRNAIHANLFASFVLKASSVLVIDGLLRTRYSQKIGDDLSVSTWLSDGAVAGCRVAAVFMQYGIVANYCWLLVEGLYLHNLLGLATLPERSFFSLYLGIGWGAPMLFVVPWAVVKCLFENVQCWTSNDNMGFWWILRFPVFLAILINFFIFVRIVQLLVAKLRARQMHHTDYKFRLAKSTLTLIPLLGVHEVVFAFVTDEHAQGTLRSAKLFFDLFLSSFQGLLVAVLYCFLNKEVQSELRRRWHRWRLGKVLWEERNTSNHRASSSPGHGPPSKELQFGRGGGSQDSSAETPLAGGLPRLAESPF
T2 sequence (P43220 24-463): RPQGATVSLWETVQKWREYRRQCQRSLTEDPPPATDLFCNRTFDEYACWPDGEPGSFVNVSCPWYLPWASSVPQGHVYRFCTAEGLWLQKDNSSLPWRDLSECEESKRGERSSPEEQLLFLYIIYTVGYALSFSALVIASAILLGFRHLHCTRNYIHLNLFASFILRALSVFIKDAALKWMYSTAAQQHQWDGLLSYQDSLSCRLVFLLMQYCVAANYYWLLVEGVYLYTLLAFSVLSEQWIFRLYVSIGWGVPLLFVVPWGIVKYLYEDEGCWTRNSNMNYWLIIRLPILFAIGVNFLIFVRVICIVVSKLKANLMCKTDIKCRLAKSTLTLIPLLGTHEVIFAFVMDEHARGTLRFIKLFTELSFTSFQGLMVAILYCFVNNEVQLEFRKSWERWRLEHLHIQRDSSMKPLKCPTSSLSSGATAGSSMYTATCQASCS

## CC[C@H](C)[C@H](NC(=O)[C@H](Cc1ccccc1)NC(=O)[C@H](CC(=O)O)NC(=O)[C@H](CCC(N)=O)NC(=O)[C@H](C)NC(=O)[C@H](CCCNC(=N)N)NC(=O)[C@H](CCCNC(=N)N)NC(=O)[C@H](CCC(=O)O)NC(=O)[C@H](CC(=O)O)NC(=O)[C@H](CCSC)NC(=O)[C@H](CCC(N)=O)NC(=O)[C@H](CCCCN)NC(=O)[C@H](CO)NC(=O)[C@H](CC(C)C)NC(=O)[C@H](CC(=O)O)NC(=O)[C@H](CO)NC(=O)[C@@H](NC(=O)[C@H](Cc1ccccc1)NC(=O)[C@@H](NC(=O)CNC(=O)[C@H](CCC(N)=O)NC(=O)[C@H](CO)NC(=O)[C@@H](N)Cc1c[nH]cn1)[C@@H](C)O)[C@@H](C)O)C(=O)N[C@@H](CCC(=O)O)C(=O)N[C@@H](Cc1c[nH]c2ccccc12)C(=O)N[C@@H](CC(C)C)C(=O)N[C@@H](CCCCN)C(=O)N[C@@H](CC(N)=O)C(=O)NCC(=O)NCC(=O)N1CCC[C@H]1C(=O)N[C@@H](CO)C(=O)N[C@@H](CO)C(=O)NCC(=O)N[C@@H](C)C(=O)N1CCC[C@H]1C(=O)N1CCC[C@H]1C(=O)N1CCC[C@H]1C(=O)N[C@@H](CO)C(N)=O [(5)] (H-HSQGTFTSDLSKQMDERRAQDFIEWLKNGGPSSGAPPPS-NH2)
[1]
  EC50: 67 pM

## CCCCCCCCCCCCCCCC(=O)N[C@@H](CCC(=O)NCCCC[C@H](NC(=O)[C@H](CO)NC(=O)[C@@H]1CCCN1C(=O)[C@@H]1CCCN1C(=O)[C@@H]1CCCN1C(=O)[C@H](C)NC(=O)CNC(=O)[C@H](CO)NC(=O)[C@H](CO)NC(=O)[C@@H]1CCCN1C(=O)CNC(=O)[C@H](C)NC(=O)[C@H](CC(N)=O)NC(=O)[C@H](CCCCN)NC(=O)[C@H](CC(C)C)NC(=O)[C@H](Cc1c[nH]c2ccccc12)NC(=O)[C@H](CCC(=O)O)NC(=O)[C@@H](NC(=O)[C@H](Cc1ccccc1)NC(=O)[C@H](CC(=O)O)NC(=O)[C@H](CCC(N)=O)NC(=O)[C@H](C)NC(=O)[C@H](CCCNC(=N)N)NC(=O)[C@H](CCCNC(=N)N)NC(=O)[C@H](CO)NC(=O)[C@H](CCC(=O)O)NC(=O)[C@H](CCSC)NC(=O)[C@H](CCC(N)=O)NC(=O)[C@H](CCCCN)NC(=O)[C@H](CO)NC(=O)[C@H](CC(C)C)NC(=O)[C@H](CC(=O)O)NC(=O)[C@H](CO)NC(=O)[C@@H](NC(=O)[C@H](Cc1ccccc1)NC(=O)[C@@H](NC(=O)CNC(=O)[C@H](CCC(N)=O)NC(=O)[C@@H](CO)NC(=O)[C@@H](N)Cc1c[nH]cn1)[C@@H](C)O)[C@@H](C)O)[C@@H](C)CC)C(N)=O)C(=O)O [(64)] (H-H[dS]QGTFTSDLSKQMESRRAQDFIEWLKNAGPSSGAPPPSK([γGlu-Palmitoyl])-NH2)
[1]
  EC50: 67 pM

## CCCCCCCCCCCCCCCC(=O)N[C@@H](CCC(=O)NCCCC[C@H](NC(=O)[C@H](CO)NC(=O)[C@@H]1CCCN1C(=O)[C@@H]1CCCN1C(=O)[C@@H]1CCCN1C(=O)[C@H](C)NC(=O)CNC(=O)[C@H](CO)NC(=O)[C@H](CO)NC(=O)[C@@H]1CCCN1C(=O)CNC(=O)[C@@H](NC(=O)[C@H](CC(N)=O)NC(=O)[C@H](CCCCN)NC(=O)[C@H](CC(C)C)NC(=O)[C@H](Cc1c[nH]c2ccccc12)NC(=O)[C@H](CCC(=O)O)NC(=O)[C@@H](NC(=O)[C@H](Cc1ccccc1)NC(=O)[C@H](CC(=O)O)NC(=O)[C@H](CCC(N)=O)NC(=O)[C@H](C)NC(=O)[C@H](CCCNC(=N)N)NC(=O)[C@H](CCCNC(=N)N)NC(=O)[C@H](CO)NC(=O)[C@H](CC(=O)O)NC(=O)[C@H](CCSC)NC(=O)[C@H](CCC(N)=O)NC(=O)[C@H](CCCCN)NC(=O)[C@H](CO)NC(=O)[C@H](CC(C)C)NC(=O)[C@H](CC(=O)O)NC(=O)[C@H](CO)NC(=O)[C@@H](NC(=O)[C@H](Cc1ccccc1)NC(=O)[C@@H](NC(=O)CNC(=O)[C@H](CCC(N)=O)NC(=O)[C@@H](CO)NC(=O)[C@@H](N)Cc1c[nH]cn1)[C@@H](C)O)[C@@H](C)O)[C@@H](C)CC)[C@@H](C)O)C(N)=O)C(=O)O [(71)]
[1]
  EC50: 1.9 pM

## CCCCCCCCCCCCCCCC(=O)N[C@@H](CCC(=O)NCCCC[C@H](NC(=O)[C@H](CO)NC(=O)[C@@H]1CCCN1C(=O)[C@@H]1CCCN1C(=O)[C@@H]1CCCN1C(=O)[C@H](C)NC(=O)CNC(=O)[C@H](CO)NC(=O)[C@H](CO)NC(=O)[C@@H]1CCCN1C(=O)CNC(=O)CNC(=O)[C@H](C)NC(=O)[C@H](CCCCN)NC(=O)[C@H](CC(C)C)NC(=O)[C@H](Cc1c[nH]c2ccccc12)NC(=O)[C@H](CCC(=O)O)NC(=O)[C@@H](NC(=O)[C@H](Cc1ccccc1)NC(=O)[C@H](CC(C)C)NC(=O)[C@H](CCC(N)=O)NC(=O)[C@H](C)NC(=O)[C@H](C)NC(=O)[C@H](CCCNC(=N)N)NC(=O)[C@H](CO)NC(=O)[C@H](CCC(=O)O)NC(=O)[C@H](CCSC)NC(=O)[C@H](CCC(N)=O)NC(=O)[C@H](CCCCN)NC(=O)[C@H](CO)NC(=O)[C@H](CC(C)C)NC(=O)[C@H](CC(=O)O)NC(=O)[C@H](CO)NC(=O)[C@@H](NC(=O)[C@H](Cc1ccccc1)NC(=O)[C@@H](NC(=O)CNC(=O)[C@H](CCC(N)=O)NC(=O)[C@@H](CO)NC(=O)[C@@H](N)Cc1c[nH]cn1)[C@@H](C)O)[C@@H](C)O)[C@@H](C)CC)C(N)=O)C(=O)O [(79)] (H-H[dS]QGTFTSDLSKQMESRAAQLFIEWLKAGGPSSGAPPPSK([γGlu-Palmitoyl])-NH2)
[2]
  EC50: 3.7 pM
[1]
  EC50: 195 pM
[3]; pH 4.5
  solubility at 2 h: > 1000 µg/mL
[3]; pH 7.4
  solubility at 2 h: 666 µg/mL (≈ 145 µM)
